Source: patent US10729742B2, “Screening method for the identification of agents capable of activating CD4+CD25+ regulatory T-cells through interactions with the HIV-1 GP120 binding site on CD4” (priority 2007, dated 2020)

What was measured:
CD4+CD25+ Treg cells [1] = test: Coculture suppression assay B: CD8+ T effector cell proliferation (3H-Tdr incorporation) with CD4+CD25+ Treg cells and syngenic T cell-depleted PBMC; format: cell-based, human; settings: for proliferation of CD8+ T cells co-cultured with CD4+CD25+ Treg cells and inactivated syngenic CD3-depleted PBMC: FIG. 1 black bars, compared with CD8+ T cells without Tregs, 3H-Tdr incorporation 4 days later, effect dose-dependent; for proliferation of CD4+CD25+ Tregs: FIG. 1 white bars
Text: In order to study the influence of a substance, e.g. HIV-1 gp120 which can bind at least to the epitope given in SEQ ID NO.:1 exclusively on the suppressive function of CD4^+CD25^+ Treg cells, we developed a co-culture assay which contained CD8^+ T cells as effectors to exclude any influence of this substance on the latter (CD8^+ T cells don't express CD4). […] To evaluate the influence of e.g. HIV-1 gp120 on the function of CD4^+CD25^+ Treg cells, isolated CD4^+CD25^+ Treg cells (2.1.4) are co-cultured with syngenic, T cell-depleted and irradiated (50 Gy) PBMC 2.1.6) and allogeneic CD8^+ T effector cells (2.1.3) in presence of varying concentrations (0.1-10 μg/ml) of different HIV-1 gp120 preparations. Briefly, 1×10^5 CD4^+CD25^+ Treg cells are incubated with 3×10^5 syngenic T cell-depleted PBMC in the presence or absence of varying amounts of HIV-1 gp120. Stimulation with 0.5 μg/ml anti-CD3 monoclonal antibody (OKT-3, ebioscience, USA) serves as positive control. No additional stimulation represents negative control. Either immediately or 24 h. later, 1×10^5 allogeneic CD8^+ T effector cells are added to the cultures and proliferation is determined after additional 72 h. by ^3H-Tdr incorporation (37 kBq/well). Functional activation of CD4^+CD25^+ Treg cells via interaction with the epitope as set forth in SEQ ID NO:1 result in suppressed proliferation of CD8^+ T effector cells and therewith identifies a substance as a Treg cell activator (Data see FIG. 1).
After 3-4 days of incubation of cells in assays provided under (2.2.1), (2.2.2) and (2.2.3) T cell proliferation is measured. For additional 16 h., cells are pulsed with ^3H-Tdr (37 kBq/well, MB Biomedicals), and incorporated radioactivity is measured by using a liquid scintillation counter (Betaplate, Wallac/PerkinElmer). In the absence of a Treg cell activating compound, resting Treg cells cannot inhibit the proliferation of CD4^+ T helper cells or CD8^+ T effector cells (negative control). In contrast, in presence of an activating CD4-binding compound or anti-CD3 monoclonal antibody (positive control) the proliferation of CD4^+ T helper cells or CD8^+ T effector cells is suppressed by CD4^+CD25^+ Treg cells. A reduced incorporated radioactivity resembles suppressed proliferation and identifies CD4^+ T helper cell or CD8^+ T effector cell inhibition and therewith identifies that a CD4^+CD25^+ Treg cell has been activated.
In order to study the influence of HIV-1 gp120 exclusively on the function of CD4^+CD25^+ Treg cells, we developed a coculture assay which contained CD8^+ T cells as effectors to exclude any influence of HIV-1 gp120 on the latter. Therefore, isolated CD4^+CD25^+ Treg cells are cocultured with T cell-depleted syngenic PBMC and allogeneic CD8^+ T effector cells. […] (All HIV-1 gp120 proteins: Protein Sciences Corp. Meriden, USA).
1×10^5 isolated CD25^+ Treg cells were incubated with 3×10^5 irradiated (50 Gy) syngenic T cell-depleted PBMC and 1×10^5 allogeneic CD8^+ T effector cells in presence/absence of different HIV-1 gp120 preparations, addition of 0.5 μg/ml anti-CD3 (OKT-3) served as positive control. Proliferation was determined by ^3H-Tdr-Incorporation 4 days later.
Grey bars represent proliferation of CD8^+ T cells and inactivated syngenic CD3-depleted PBMC, white bars represent the proliferation of CD4^+CD25^+ Tregs and the black bars represent the proliferation of CD8^+ T cells co-cultured with CD4^+CD25^+ Tregs cells and inactivated syngenic CD3-depleted PBMC. Due to inactivation PBMC don't contribute to proliferation of the samples.

CD4+CD25+ Treg cells [2] = test: Cytosolic cAMP measurement in CD4+CD25+ Treg cells (cAMP-specific ELISA); format: cell-based, human; settings: FIG. 2; 1 μg/ml, 16 hours of stimulation, 1×10^6 T cells
Description: Stimulation of Treg cells results in strong increase of cytosolic (i.e. intracellular) cAMP. Therefore, the analysis of cAMP in Treg cells is an additional method to determine whether a substance which can interfere with HIV-1 gp120 binding to CD4 epitope of a CD4-positive cell can activate a Treg cell. In this assay freshly isolated CD4^+CD25^+ Treg cells (according to 2.1.4) (1×10^5-1×10^6/well) are incubated with anti-CD3 monoclonal antibody (OKT-3; 0.5 μg/ml) or HIV-1 gp120 (0.1-10 μg/ml; Protein Science Corp., Meriden, Conn., USA) or left untreated for 16 hours. To assess cytosolic cAMP-concentrations a cAMP-specific ELISA (Parameter™ Cyclic AMP Assay, Cat. No. KGE002; R&D Systems, Wiesbaden, Germany) is applied. […]
Activation of Treg cells by the test compound results directly in an increase of cytosolic cAMP. In the absence of a Treg cell activating compound no increase of cAMP in CD4^+CD25^+ Treg cells is detected (negative control). […]
CD4^+CD25^+ regulatory T cells (CD25) are left untreated (0) or stimulated with an anti-CD3 monoclonal Antibody (OKT-3; 1 μg/ml) or HIV-1 gp120 (1 μg/ml). Upon 16 hours of stimulation the CD4^+CD25^+ regulatory T cells are lysed (1×10^7/ml) and the cytosolic cAMP concentration of 1×10^6 T cells is assessed using a cAMP-specific ELISA. […]

NOD-Scid mice [3] = test: GVHD induced by transfer of human CD25-depleted PBMC into NOD-Scid mice; lack of weight increase/weight loss as score; format: in vivo; settings: FIG. 5; 5 μg HIV gp120 injected together with CD25-depleted PBMC, intraperitoneal
Text: NOD-Scid mice at the age of three to six days after birth are intraperitoneally injected with 1×10^7 human CD25-depleted PBMC (isolation of human CD25-depleted PBMC according to 2.1.7). GVHD is induced by 1×10^7 human CD25-depleted PBMC at the same magnitude as by transfer of 1×10^7 human non CD25-depleted PBMC into NOD-Scid mice. […] Prevention of GVHD by HIV gp120 or a substance which can interfere with HIV-1 gp120-binding depends on regulatory T cells. Lack of weight increase/weight loss is used as a parameter to score GVHD severity. Data see FIG. 5.
Three to six days old NOD-Scid mice are intraperitoneally injected with 1×10^7 human CD25-depleted PBMC without (circles) or together with 5 μg HIV gp120 (triangles). […] Lack of weight increase/weight loss is used as a parameter to score GVHD severity.

NOD-Scid mice [4] = test: GVHD induced by transfer of human PBMC into NOD-Scid mice; lack of weight increase/weight loss as score; format: in vivo; settings: FIG. 4; 5 μg HIV gp120 injected together with PBMC, intraperitoneal, three to six days old mice
Text: NOD-Scid mice, non-obese diabetic/severe combined immunodeficient mice, (mutant allele: Prkdc^Scid strain: NOD.CB 17-Prkdc^Scid, (Shultz et al. 1995)) from the Central Laboratory Animal Facility of the University of Mainz (also purchasable from The Jackson Laboratory via Charles River Laboratories, Germany) are used as an animal model for transfer of peripheral human immune cells and thus for the in vivo analysis of immuno-regulatory interactions (Hesselton et al. 1995). Human peripheral blood mononuclear cells (PBMC) transferred into NOD-Scid mice induce an accelerating […] graft-versus-host disease (GVHD). While the number of cells transferred determines the onset of this disease, the co-transfer of human Tregs can gradually delay or prevent the disease. This model system further allows the study of human Treg function. To induce a GVHD NOD-Scid mice at the age of three to six days after birth are intraperitoneally injected with 1×10^7 to 3×10^7 human PBMC (isolation of human PBMC according to 2.1.1). GVHD is induced by immunological (xenogenic) activation of human effector T cells in the PBMC fraction injected into the mice. NOD-Scid mice, however, are not able to react against the grafted human PBMC. […]

Substance	proliferation of CD8+ T cells co-cultured with CD4+CD25+ Treg cells and inactivated syngenic CD3-depleted PBMC (CD4+CD25+ Treg cells [1])	proliferation of CD4+CD25+ Tregs (CD4+CD25+ Treg cells [1]; 3H-Tdr incorporation)	cytosolic (intracellular) cAMP in Treg cells compared to untreated control (CD4+CD25+ Treg cells [2])	proliferation of CD8+ T cells and inactivated syngenic CD3-depleted PBMC, without Tregs (CD4+CD25+ Treg cells [1]; FIG. 1 grey bars, 3H-Tdr incorporation)	development of GVHD (relative body weight) after transfer of 1×10^7 human CD25-depleted PBMC (NOD-Scid mice [3])	development of GVHD (relative body weight) after transfer of 1×10^7 human PBMC (NOD-Scid mice [4])
HIV-1 gp120 LAV: HIV-1 gp120 preparation LAV, Protein Sciences Corp. Meriden, USA	reduced proliferation	don't show a significant proliferation	–	–	–	–
anti-CD3: anti-CD3 monoclonal antibody (OKT-3, ebioscience, USA), positive control [reference compound]	reduced proliferation	don't show a significant proliferation	increase of intracellular cAMP	strong increased proliferation	–	–
HIV-1 gp120 CM: HIV-1 gp120 preparation CM, Protein Sciences Corp. Meriden, USA	reduced proliferation	don't show a significant proliferation	–	–	–	–
HIV-1 gp120: human immune deficiency virus 1 (HIV-1) glycoprotein gp120, binds CD4; Protein Sciences Corp.	–	–	increase of intracellular cAMP	–	not protected from development of GVHD	protected from development of GVHD
HIV-1 gp120 MN: HIV-1 gp120 preparation MN, Protein Sciences Corp. Meriden, USA	reduced proliferation	don't show a significant proliferation	–	–	–	–
